Laboratory results from ChEMBL document CHEMBL4038275, “t-Butyl pyridine and phenyl C-region analogues of 2-(3-fluoro-4-methylsulfonylaminophenyl)propanamides as potent TRPV1 antagonists” (Bioorg Med Chem, 2017).
Calls of active or inactive are those of the source. No cut-off for these calls is given here.

Key:
[1] = target: Transient receptor potential cation channel subfamily V member 1 (Homo sapiens, UniProt Q8NER1); test: Antagonist activity at human TRPV1 expressed in CHOK1 cells assessed as inhibition of capsaicin induced calcium influx pretreated for 6 mins followed by capsaicin addition by Fluo-4/Pluronic F127 probe based FLIPR method; assay type: cell-based
Transient receptor potential cation channel subfamily V member 1, sequence (Q8NER1 whole entry): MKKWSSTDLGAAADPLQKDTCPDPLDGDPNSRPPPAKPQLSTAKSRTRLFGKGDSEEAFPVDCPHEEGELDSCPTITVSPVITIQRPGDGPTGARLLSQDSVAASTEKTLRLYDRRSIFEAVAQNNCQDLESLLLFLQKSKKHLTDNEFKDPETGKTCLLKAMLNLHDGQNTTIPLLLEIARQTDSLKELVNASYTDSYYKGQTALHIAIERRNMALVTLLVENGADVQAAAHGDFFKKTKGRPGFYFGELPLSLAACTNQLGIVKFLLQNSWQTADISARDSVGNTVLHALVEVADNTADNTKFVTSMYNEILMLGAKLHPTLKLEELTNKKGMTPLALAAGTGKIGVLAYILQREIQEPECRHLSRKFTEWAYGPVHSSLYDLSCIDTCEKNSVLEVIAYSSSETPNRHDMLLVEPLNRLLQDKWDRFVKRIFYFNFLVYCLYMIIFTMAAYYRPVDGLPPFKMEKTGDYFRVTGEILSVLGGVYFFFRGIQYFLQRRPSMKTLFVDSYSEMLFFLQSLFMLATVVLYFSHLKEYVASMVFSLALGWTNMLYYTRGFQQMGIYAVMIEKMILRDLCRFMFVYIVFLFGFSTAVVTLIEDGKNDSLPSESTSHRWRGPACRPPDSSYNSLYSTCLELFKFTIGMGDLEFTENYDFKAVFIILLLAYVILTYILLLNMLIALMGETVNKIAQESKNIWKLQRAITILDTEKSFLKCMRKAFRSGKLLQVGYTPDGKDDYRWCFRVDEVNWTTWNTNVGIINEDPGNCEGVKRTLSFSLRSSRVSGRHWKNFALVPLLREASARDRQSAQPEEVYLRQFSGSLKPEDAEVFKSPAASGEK

Mus musculus [2] = test: Analgesic activity in po dosed Bennett mouse model of neuropathic pain assessed as reduction in chronic constriction injury-induced cold allodynia; assay type: functional, organism-based
Mus musculus [3] = test: Analgesic activity in Bennett mouse model of neuropathic pain assessed as reduction in chronic constriction injury-induced cold allodynia at 10 mg/kg, po relative to control; assay type: functional
Mus musculus [4] = test: Analgesic activity in Bennett mouse model of neuropathic pain assessed as reduction in chronic constriction injury-induced cold allodynia at 3 mg/kg, po relative to control; assay type: functional
Mus musculus [5] = test: Analgesic activity in mouse assessed as reduction in capsaicin induced hypothermia at 3 mg/kg, po relative to control; assay type: functional
Mus musculus [6] = test: Analgesic activity in mouse assessed as reduction in capsaicin induced hypothermia at 10 mg/kg, po relative to control; assay type: functional

Ki [1] [nM]	SMILES	also measured
0.5	CCCCCCOc1cc(C(C)(C)C)ccc1CNC(=O)C(C)c1ccc(NS(C)(=O)=O)c(F)c1 (stereo not drawn)	
3.8	CC(C(=O)NCc1ccc(C(C)(C)C)cc1OCc1ccc(F)cc1)c1ccc(NS(C)(=O)=O)c(F)c1 (stereo not drawn)	
2.5	CC(C(=O)NCc1ccc(C(C)(C)C)nc1SC1CCCC1)c1ccc(NS(C)(=O)=O)c(F)c1 (stereo not drawn)	
3.4	CC(C(=O)NCc1ccc(C(C)(C)C)nc1SCc1ccc(Cl)cc1)c1ccc(NS(C)(=O)=O)c(F)c1 (stereo not drawn)	
6.7	CCCCSc1cc(C(C)(C)C)ccc1CNC(=O)C(C)c1ccc(NS(C)(=O)=O)c(F)c1 (stereo not drawn)	
1.5	CCCCCCSc1nc(C(C)(C)C)ccc1CNC(=O)C(C)c1ccc(NS(C)(=O)=O)c(F)c1 (stereo not drawn)	
112	CC(C(=O)NCc1ccc(C(C)(C)C)nc1SCCCN1CCOCC1)c1ccc(NS(C)(=O)=O)c(F)c1 (stereo not drawn)	
0.8	CC(C(=O)NCc1ccc(C(C)(C)C)nc1OCc1ccc(F)cc1)c1ccc(NS(C)(=O)=O)c(F)c1 (stereo not drawn)	
17.1	CC(C(=O)NCc1ccc(C(C)(C)C)nc1SCCCN1CCCC1)c1ccc(NS(C)(=O)=O)c(F)c1 (stereo not drawn)	
3.1	CC(C(=O)NCc1ccc(C(C)(C)C)nc1C1CCCCC1)c1ccc(NS(C)(=O)=O)c(F)c1 (stereo not drawn)	
6	C[C@H](C(=O)NCc1ccc(C(C)(C)C)cc1SC1CCCCC1)c1ccc(NS(C)(=O)=O)c(F)c1	Activity (Mus musculus [2]): Dose-dependent effect; MPE (Mus musculus [3]): 83%
4	CC(C(=O)NCc1ccc(C(C)(C)C)nc1SCc1ccccc1)c1ccc(NS(C)(=O)=O)c(F)c1 (stereo not drawn)	
0.3	CC(C(=O)NCc1ccc(C(C)(C)C)nc1-c1ccc(F)cc1)c1ccc(NS(C)(=O)=O)c(F)c1 (stereo not drawn)	
89.2	C[C@@H](C(=O)NCc1ccc(C(C)(C)C)cc1SC1CCCCC1)c1ccc(NS(C)(=O)=O)c(F)c1	
51.8	CC(C(=O)NCc1ccc(C(C)(C)C)nc1SCCCN(C)C)c1ccc(NS(C)(=O)=O)c(F)c1 (stereo not drawn)	
1	CCCCN(C)c1cc(C(C)(C)C)ccc1CNC(=O)C(C)c1ccc(NS(C)(=O)=O)c(F)c1 (stereo not drawn)	
5.9	CC(C)CCSc1nc(C(C)(C)C)ccc1CNC(=O)C(C)c1ccc(NS(C)(=O)=O)c(F)c1 (stereo not drawn)	
0.3	CC(C(=O)NCc1ccc(C(C)(C)C)nc1N1CCC(Cc2ccccc2)CC1)c1ccc(NS(C)(=O)=O)c(F)c1 (stereo not drawn)	
1.2	CCCCN(C)c1nc(C(C)(C)C)ccc1CNC(=O)C(C)c1ccc(NS(C)(=O)=O)c(F)c1 (stereo not drawn)	
8.1	CC(C(=O)NCc1ccc(C(C)(C)C)cc1N1CCCC1)c1ccc(NS(C)(=O)=O)c(F)c1 (stereo not drawn)	
0.6	CC(C)CCOc1cc(C(C)(C)C)ccc1CNC(=O)C(C)c1ccc(NS(C)(=O)=O)c(F)c1 (stereo not drawn)	

Ki [1] [nM]	SMILES	also measured
36.4	C[C@@H](C(=O)NCc1ccc(C(C)(C)C)nc1SC1CCCCC1)c1ccc(NS(C)(=O)=O)c(F)c1	
3.1	CCCCCSc1nc(C(C)(C)C)ccc1CNC(=O)C(C)c1ccc(NS(C)(=O)=O)c(F)c1 (stereo not drawn)	
0.8	CC(C(=O)NCc1ccc(C(C)(C)C)cc1N1CCN(c2ccccc2)CC1)c1ccc(NS(C)(=O)=O)c(F)c1 (stereo not drawn)	
0.7	CC1CCN(c2cc(C(C)(C)C)ccc2CNC(=O)C(C)c2ccc(NS(C)(=O)=O)c(F)c2)CC1 (stereo not drawn)	
2.9	CC(C(=O)NCc1ccc(C(C)(C)C)cc1OCc1ccccc1)c1ccc(NS(C)(=O)=O)c(F)c1 (stereo not drawn)	
6.2	CC(C(=O)NCc1ccc(C(C)(C)C)cc1N1CCCCCC1)c1ccc(NS(C)(=O)=O)c(F)c1 (stereo not drawn)	
0.1	CCC1CCN(c2nc(C(C)(C)C)ccc2CNC(=O)C(C)c2ccc(NS(C)(=O)=O)c(F)c2)CC1 (stereo not drawn)	
6	COc1cccc(COc2nc(C(C)(C)C)ccc2CNC(=O)C(C)c2ccc(NS(C)(=O)=O)c(F)c2)c1 (stereo not drawn)	
8.5	CC(C(=O)NCc1ccc(C(C)(C)C)nc1SC1CCCCC1)c1ccc(NS(C)(=O)=O)c(F)c1 (stereo not drawn)	
4.4	CCCOc1cc(C(C)(C)C)ccc1CNC(=O)C(C)c1ccc(NS(C)(=O)=O)c(F)c1 (stereo not drawn)	
1.1	CC(C(=O)NCc1ccc(C(C)(C)C)nc1N1CCCCC1)c1ccc(NS(C)(=O)=O)c(F)c1 (stereo not drawn)	
1.9	CCCCCc1nc(C(C)(C)C)ccc1CNC(=O)C(C)c1ccc(NS(C)(=O)=O)c(F)c1 (stereo not drawn)	
7.4	CC(C(=O)NCc1ccc(C(C)(C)C)cc1SC1CCCCC1)c1ccc(NS(C)(=O)=O)c(F)c1 (stereo not drawn)	
4.1	CC(C(=O)NCc1ccc(C(C)(C)C)nc1SCC(F)(F)F)c1ccc(NS(C)(=O)=O)c(F)c1 (stereo not drawn)	
3.4	C[C@H](C(=O)NCc1ccc(C(C)(C)C)nc1SC1CCCCC1)c1ccc(NS(C)(=O)=O)c(F)c1	Activity (Mus musculus [3]): Active; MPE (Mus musculus [4]): 50%; MPE (Mus musculus [5]): 46%; MPE (Mus musculus [6]): 15%
3.8	CC(C(=O)NCc1ccc(C(C)(C)C)nc1SCc1ccccc1Cl)c1ccc(NS(C)(=O)=O)c(F)c1 (stereo not drawn)	
2.8	CCCCCc1cc(C(C)(C)C)ccc1CNC(=O)C(C)c1ccc(NS(C)(=O)=O)c(F)c1 (stereo not drawn)	
1.9	CC(C(=O)NCc1ccc(C(C)(C)C)cc1N1CCCCC1)c1ccc(NS(C)(=O)=O)c(F)c1 (stereo not drawn)	
9.8	CC(C(=O)NCc1ccc(C(C)(C)C)cc1C1CCCCC1)c1ccc(NS(C)(=O)=O)c(F)c1 (stereo not drawn)	
3.2	CCCCSc1nc(C(C)(C)C)ccc1CNC(=O)C(C)c1ccc(NS(C)(=O)=O)c(F)c1 (stereo not drawn)	
3.5	COc1ccc(CSc2nc(C(C)(C)C)ccc2CNC(=O)C(C)c2ccc(NS(C)(=O)=O)c(F)c2)cc1 (stereo not drawn)	
